ChEMBL document CHEMBL6074677, “Development of dual V1a/V2 antagonists containing triazolobenzazepine scaffold” (Eur J Med Chem, 2025)

Key:
Vasopressin V1a receptor [1] = target: T1, Vasopressin V1a receptor (Homo sapiens, UniProt P37288); assay: Displacement of [3H]AVP from human vasopressin V1a receptor expressed in human 1321N1 cells assessed as inhibition constant; format: cell-based
Vasopressin V2 receptor = Vasopressin V2 receptor (Homo sapiens, UniProt P30518); assay: Displacement of [3H]AVP from human vasopressin V2 receptor expressed in human 1321N1 cells assessed as inhibition constant; format: cell-based
Vasopressin V2 receptor, sequence (P30518 whole entry): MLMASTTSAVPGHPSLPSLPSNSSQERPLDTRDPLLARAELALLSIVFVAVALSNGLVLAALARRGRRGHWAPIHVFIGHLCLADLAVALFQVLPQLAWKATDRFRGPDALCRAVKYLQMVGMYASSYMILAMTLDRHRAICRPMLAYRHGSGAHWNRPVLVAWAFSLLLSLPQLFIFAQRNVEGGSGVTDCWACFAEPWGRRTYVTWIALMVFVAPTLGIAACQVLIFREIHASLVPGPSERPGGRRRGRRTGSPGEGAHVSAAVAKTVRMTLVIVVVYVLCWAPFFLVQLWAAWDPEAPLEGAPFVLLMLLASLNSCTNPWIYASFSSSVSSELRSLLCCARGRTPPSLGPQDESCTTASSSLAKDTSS

[2] = Metabolic stability in human liver microsomes assessed as intrinsic clearance at 1 uM in presence of NADPH; format: ADME, Microsome; details: read-out: CLH
[3] = Metabolic stability in rat liver microsomes assessed as intrinsic clearance at 1 uM in presence of NADPH; format: ADME, Microsome; details: read-out: CLH
[4] = Metabolic stability in mouse liver microsomes assessed as intrinsic clearance at 1 uM in presence of NADPH; format: ADME, Microsome; details: read-out: CLH
[5] = Apparent permeability across apical to basolateral side in vinblastine treated human Caco-2 cells incubated for 15 to 60 mins by HPLC analysis; format: ADME, cell-based; details: time 15-60 min
[6] = target: Voltage-gated inwardly rectifying potassium channel KCNH2 (Homo sapiens, UniProt Q12809); assay: Inhibition of human ERG expressed in CHO cells at -80 mV holding potential measured for 7 to 10 mins by automated patch clamp method; format: toxicity, cell-based
Voltage-gated inwardly rectifying potassium channel KCNH2, sequence (Q12809 whole entry): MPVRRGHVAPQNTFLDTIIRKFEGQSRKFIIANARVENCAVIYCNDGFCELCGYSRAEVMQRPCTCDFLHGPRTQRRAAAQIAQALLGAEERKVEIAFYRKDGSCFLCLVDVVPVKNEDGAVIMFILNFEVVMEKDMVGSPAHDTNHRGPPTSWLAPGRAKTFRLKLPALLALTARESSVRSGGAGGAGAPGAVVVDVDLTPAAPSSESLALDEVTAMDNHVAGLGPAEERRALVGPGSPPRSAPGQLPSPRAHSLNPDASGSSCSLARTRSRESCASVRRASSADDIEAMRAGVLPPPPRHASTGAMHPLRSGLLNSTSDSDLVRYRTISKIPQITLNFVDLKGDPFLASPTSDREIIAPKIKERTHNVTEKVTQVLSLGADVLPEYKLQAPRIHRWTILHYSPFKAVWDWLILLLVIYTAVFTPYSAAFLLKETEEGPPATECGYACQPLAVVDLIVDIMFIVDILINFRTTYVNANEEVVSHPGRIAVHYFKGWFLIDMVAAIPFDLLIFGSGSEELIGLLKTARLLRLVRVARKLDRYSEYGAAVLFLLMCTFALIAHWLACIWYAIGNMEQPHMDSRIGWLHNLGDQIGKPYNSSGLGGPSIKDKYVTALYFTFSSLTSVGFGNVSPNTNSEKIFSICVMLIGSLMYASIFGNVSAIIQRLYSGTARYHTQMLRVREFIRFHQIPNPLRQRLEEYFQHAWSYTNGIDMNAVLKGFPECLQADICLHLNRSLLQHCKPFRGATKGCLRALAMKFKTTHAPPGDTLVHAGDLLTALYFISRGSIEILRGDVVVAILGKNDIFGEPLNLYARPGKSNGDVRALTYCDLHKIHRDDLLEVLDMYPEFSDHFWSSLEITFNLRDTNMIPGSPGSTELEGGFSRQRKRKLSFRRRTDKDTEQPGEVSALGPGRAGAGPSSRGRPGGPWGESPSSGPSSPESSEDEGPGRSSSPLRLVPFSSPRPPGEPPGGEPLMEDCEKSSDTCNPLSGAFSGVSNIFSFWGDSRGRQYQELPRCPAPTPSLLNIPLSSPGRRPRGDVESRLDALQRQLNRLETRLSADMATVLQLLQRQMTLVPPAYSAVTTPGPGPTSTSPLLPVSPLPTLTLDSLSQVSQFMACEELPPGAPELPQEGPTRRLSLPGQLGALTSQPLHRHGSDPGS

[7] = target: Vasopressin V1a receptor (Mus musculus) (UniProt Q62463); assay: In vivo antagonist activity at vasopressin V1a receptor in male NMRI mouse assessed as inhibition of oxytocin-induced scratching behavior at 3 mg/kg, po pretreated with compound for 60 mins followed by oxytocin administration and measured after 1 hrs relative to control; format: functional, organism-based; details: time 120.0 min
Vasopressin V1a receptor (Mus musculus), sequence (Q62463 whole entry, looked up): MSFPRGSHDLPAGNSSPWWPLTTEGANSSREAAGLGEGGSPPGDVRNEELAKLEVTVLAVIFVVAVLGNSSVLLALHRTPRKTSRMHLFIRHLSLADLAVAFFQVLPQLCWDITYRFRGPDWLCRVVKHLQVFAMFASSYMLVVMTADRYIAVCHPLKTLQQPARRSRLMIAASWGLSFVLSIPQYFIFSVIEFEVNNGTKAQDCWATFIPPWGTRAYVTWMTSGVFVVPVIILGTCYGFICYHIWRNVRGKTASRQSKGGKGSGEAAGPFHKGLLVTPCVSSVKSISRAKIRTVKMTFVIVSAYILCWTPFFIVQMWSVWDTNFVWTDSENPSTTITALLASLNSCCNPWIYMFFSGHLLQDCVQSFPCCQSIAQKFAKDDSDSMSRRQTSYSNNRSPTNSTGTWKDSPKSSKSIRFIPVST

[8] = target: Vasopressin V1a receptor (Mus musculus) (UniProt Q62463); assay: In vivo antagonist activity at vasopressin V1a receptor in male NMRI mouse assessed as inhibition of oxytocin-induced scratching behavior at 1 mg/kg, po pretreated with compound for 60 mins followed by oxytocin administration and measured after 1 hrs relative to control; format: functional, organism-based; details: time 120.0 min
[9] = target: Vasopressin V1a receptor (Mus musculus) (UniProt Q62463); assay: In vivo antagonist activity at vasopressin V1a receptor in male NMRI mouse assessed as inhibition of oxytocin-induced scratching behavior at 0.3 mg/kg, po pretreated with compound for 60 mins followed by oxytocin administration and measured after 1 hrs relative to control; format: functional, organism-based; details: time 120.0 min
Vasopressin V1a receptor [10] = target: T1, Vasopressin V1a receptor; assay: Displacement of [3H]AVP from human vasopressin V1a receptor expressed in human 1321N1 cells; format: cell-based
Vasopressin V1a receptor [11] = target: Vasopressin V1a receptor (Mus musculus, UniProt Q62463); assay: Displacement of [3H]AVP from mouse vasopressin V1a receptor expressed in human 1321N1 cells assessed as inhibition constant; format: cell-based
Vasopressin V1a receptor (Mus musculus, UniProt Q62463), sequence (Q62463 whole entry): as the sequence (Q62463 whole entry, looked up) above

[12] = target: Vasopressin V1a receptor (Mus musculus) (UniProt Q62463); assay: In vivo antagonist activity at vasopressin V1a receptor in male NMRI mouse assessed as inhibition of oxytocin-induced scratching behavior at 0.1 mg/kg, po pretreated with compound for 60 mins followed by oxytocin administration and measured after 1 hrs relative to control; format: functional, organism-based; details: time 120.0 min

T1 sequence (P37288 whole entry): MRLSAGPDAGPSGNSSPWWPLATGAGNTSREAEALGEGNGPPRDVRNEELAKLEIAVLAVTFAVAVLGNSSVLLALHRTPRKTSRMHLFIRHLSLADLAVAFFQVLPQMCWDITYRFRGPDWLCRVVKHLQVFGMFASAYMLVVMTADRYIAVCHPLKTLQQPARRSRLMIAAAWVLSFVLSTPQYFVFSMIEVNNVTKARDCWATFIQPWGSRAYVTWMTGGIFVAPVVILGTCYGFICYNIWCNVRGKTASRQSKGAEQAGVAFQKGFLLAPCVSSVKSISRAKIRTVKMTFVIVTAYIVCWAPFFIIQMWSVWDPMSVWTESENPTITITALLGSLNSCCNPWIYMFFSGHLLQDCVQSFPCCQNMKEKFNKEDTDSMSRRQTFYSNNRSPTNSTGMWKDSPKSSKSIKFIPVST

Row | SMILES | Ki (Vasopressin V1a receptor [1]) [nM] | Ki (Vasopressin V2 receptor) [nM] | microsomal CLint at 1 µM [2] [µL/min/mg] | microsomal CLint at 1 µM [3] [µL/min/mg] | microsomal CLint at 1 µM [4] [µL/min/mg] | Papp A→B [5] [×10⁻⁶ cm/s] | inhibition [7] [%] | inhibition [8] [%] | inhibition [9] [%] | IC50 (Vasopressin V1a receptor [10]) [nM] | Ki (Vasopressin V1a receptor [11]) [nM] | inhibition [12] [%] | IC50 [6] [nM]
1 | OC1Cc2cc(Cl)ccc2-n2c(nnc2N2CCN(c3cccc4c3OCC4)CC2)C1 (stereo not given) | 1.4 | 11 | 13.5 | 26.2 | 14.3 |  |  |  |  |  |  |  | 
2 | Clc1ccc2c(c1)CC1(Cc3nnc(N4CCN(c5nccc6ccsc56)CC4)n3-2)OCCO1 | 0.14 | 6.5 | 24.3 | 141 | 83.3 |  |  |  |  |  |  |  | 
3 | Clc1ccc2c(c1)CC1(Cc3nnc(N4CCN(c5cccc6c5OCO6)CC4)n3-2)OCCO1 | 0.25 | 0.8 | 8.8 | 31.7 | 25.1 | 31 |  |  |  |  |  |  | 11000
4 | Clc1ccc2c(c1)CC1(Cc3nnc(C4CCN(c5cccc6c5CCO6)CC4)n3-2)OCCO1 | 0.3 | 26 |  |  |  |  |  |  |  |  |  |  | 
5 | Clc1ccc2c(c1)CC1(Cc3nnc([C@H]4CC[C@H](Oc5ccccn5)CC4)n3-2)OCCO1 |  |  | 13 | 28 | 25 | 59.3 | 80 | 86 | 42 |  |  |  | 9100
6 | Cc1cccc(N2CCN(c3nnc4n3-c3ccc(Cl)cc3CC3(C4)OCCO3)CC2)c1C | 0.5 | 0.7 | 5.8 | 28 | 23.3 |  | 104 | 83 | 69 | 5.7 | 0.4 |  | 10000
7 | Clc1ccc2c(c1)CC1(Cc3nnc(N4CCN(c5cccc6c5OCC6)CC4)n3-2)OCCO1 | 0.13 | 0.53 | 15.9 | 36.9 | 27.1 | 30 | 86 | 91 | 85 | 2.2 | 0.5 | 81 | > 30000
8 | Clc1ccc2c(c1)CC1(Cc3nnc(N4CCN(c5ncccc5Cl)CC4)n3-2)OCCO1 | 0.26 | 1.2 | 10.6 | 51 | 58.5 |  |  |  |  |  |  |  | 
9 | NC(=O)C1Cc2cc(Cl)ccc2-n2c(nnc2N2CCC(N3CCCCC3)CC2)C1 (stereo not given) | 98 |  | 0.2 | 0.2 | 0.2 |  |  |  |  |  |  |  | 
10 | Clc1ccc2c(c1)CC1(CCOCC1)Cc1nnc(N3CCN(c4cccc5c4OCC5)CC3)n1-2 | 0.41 | 1.1 | 78.3 | 48.2 | 70.7 |  |  |  |  |  |  |  | 
11 | NC(=O)C1Cc2cc(Cl)ccc2-n2c(nnc2N2CCN(c3cccc(Cl)c3)CC2)C1 (stereo not given) | 7.7 | 259 | 3.7 | 7 | 9.2 |  |  |  |  |  |  |  | 
12 | NC(=O)C1Cc2cc(Cl)ccc2-n2c(nnc2N2CCC3(CC2)OCc2ccccc23)C1 (stereo not given) | 2.1 | 327 |  |  |  |  |  |  |  |  |  |  | 
13 | Clc1ccc2c(c1)CC1(Cc3nnc(N4CCC(c5cccc6c5OCO6)CC4)n3-2)OCCO1 | 0.2 | 0.9 |  |  |  |  |  |  |  |  |  |  | 
14 | Cc1nc2c([nH]1)-c1ccccc1N(C(=O)c1ccc(NC(=O)c3ccccc3-c3ccccc3)cc1)CC2 [CONIVAPTAN] |  |  |  |  |  | 2.9 |  |  |  |  |  |  | > 5000
15 | Clc1ccc2c(c1)CC1(Cc3nnc(N4CCC(c5cccc6c5OCC6)CC4)n3-2)OCCO1 | 0.2 | 0.7 |  |  |  |  |  |  |  |  |  |  | 
16 | Clc1ccc2c(c1)CC1(Cc3nnc(N4CCN(c5cccc6c5CCO6)CC4)n3-2)OCCO1 | 0.38 | 2.2 | 11.5 | 28.2 | 21.8 | 30 |  |  |  |  |  |  | 10000
17 | Clc1ccc2c(c1)CC1(Cc3nnc(N4CCC(Oc5ccccn5)CC4)n3-2)OCCO1 |  | 20 | 10.9 | 33.3 | 28.4 | 40.4 |  |  |  |  |  |  | 8200
18 | Clc1ccc2c(c1)CC1(Cc3nnc(N4CCN(c5ccccn5)CC4)n3-2)OCCO1 |  | 4.7 | 9.1 | 25.4 | 21.7 | 39.9 |  |  |  |  |  |  | 
19 | Clc1ccc2c(c1)CC1(CCCO1)Cc1nnc(N3CCN(c4cccc5c4OCC5)CC3)n1-2 (stereo not given) | 1.4 | 5.1 |  |  |  |  |  |  |  |  |  |  | 
20 | COC1(c2ccccc2)CCN(c2nnc3n2-c2ccc(Cl)cc2CC2(C3)OCCO2)CC1 | 0.17 | 11 | 6.9 | 62.2 | 51.7 | 34 |  |  |  |  |  |  | 11000
21 | COC1(c2ccccc2)CCN(c2nnc3n2-c2ccc(Cl)cc2CC(C(N)=O)C3)CC1 (stereo not given) | 1.3 | 1610 | 3 | 7.1 | 13.9 |  |  |  |  |  |  |  | 
22 | CC1(C)Cc2cccc(N3CCN(c4nnc5n4-c4ccc(Cl)cc4CC4(C5)OCCO4)CC3)c2O1 | 0.82 | 24 | 107 | 113 | 99.5 |  |  |  |  |  |  |  | 
23 | Clc1ccc2c(c1)CC1(Cc3nnc(C4CCN(c5cccc6c5COC6)CC4)n3-2)OCCO1 | 0.21 | 26 |  |  |  |  |  |  |  |  |  |  | 

Second part, led by results:

Row | Ki (Vasopressin V1a receptor [1]) [nM] | Ki (Vasopressin V2 receptor) [nM] | microsomal CLint at 1 µM [2] [µL/min/mg] | microsomal CLint at 1 µM [3] [µL/min/mg] | microsomal CLint at 1 µM [4] [µL/min/mg] | Papp A→B [5] [×10⁻⁶ cm/s] | inhibition [7] [%] | inhibition [8] [%] | inhibition [9] [%] | IC50 (Vasopressin V1a receptor [10]) [nM] | Ki (Vasopressin V1a receptor [11]) [nM] | inhibition [12] [%] | SMILES | IC50 [6] [nM]
24 | 2.04 | 998 | 0.2 | 1.15 | 1.15 | 2.4 |  |  |  |  |  |  | Clc1ccc2c(c1)CC1(Cc3nnc(N4CCC(N5CCCCC5)CC4)n3-2)OCCO1 | 
25 | 0.5 | 2.8 | 17 | 29.4 | 30.5 |  |  |  |  |  |  |  | Clc1ccc2c(c1)CC1(Cc3nnc(N4CCN(c5cccc6c5COC6)CC4)n3-2)OCCO1 | 7900
26 | 0.25 | 13 |  |  |  |  |  |  |  |  |  |  | O=C1c2ccccc2CCN1C1CCN(c2nnc3n2-c2ccc(Cl)cc2CC2(C3)OCCO2)CC1 | 
27 | 0.28 | 21 | 18 | 110 | 44.6 |  |  |  |  |  |  |  | Clc1ccc2c(c1)CC1(Cc3nnc(N4CCN(c5nccc6ccoc56)CC4)n3-2)OCCO1 | 
28 | 1.4 | 3620 | 0.5 | 7.6 | 6.2 |  |  |  |  |  |  |  | NC(=O)C1Cc2cc(Cl)ccc2-n2c(nnc2N2CCC(Oc3ccccn3)CC2)C1 (stereo not given) | 
29 | 0.65 | 13 | 5.1 | 14.5 | 9.1 |  |  |  |  |  |  |  | Cc1cccc(N2CCN(c3nnc4n3-c3ccc(Cl)cc3CC(C(N)=O)C4)CC2)c1C (stereo not given) | 
30 |  | 1.6 | 12 | 166 | 194 |  |  |  |  |  |  |  | Clc1ccc2c(c1)CC1(Cc3nnc(N4CCC5(CC4)OCc4ccccc45)n3-2)OCCO1 | 
31 | 0.4 | 2 |  |  |  |  |  |  |  |  |  |  | COc1ccccc1N1CCN(c2nnc3n2-c2ccc(Cl)cc2CC2(C3)OCCO2)CC1 | 
32 | 0.2 | 4 |  |  |  |  |  |  |  |  |  |  | Clc1ccc2c(c1)CC1(Cc3nnc(C4CCN(c5cccc6c5OCC6)CC4)n3-2)OCCO1 | 
33 |  |  | 12 | 168 | 32 | 46.7 |  |  |  |  |  |  | Cc1ccccc1C(=O)Nc1ccc(C(=O)N2CCCC(O)c3cc(Cl)ccc32)c(C)c1 (stereo not given) [TOLVAPTAN] | 
34 | 0.35 | 9 |  |  |  |  |  |  |  |  |  |  | Cc1ccccc1C(=O)NC1CCN(c2nnc3n2-c2ccc(Cl)cc2CC2(C3)OCCO2)CC1 | 
